Results on one sequence are retold here after patent US20110306554A1, “PEPTIDE CAPABLE OF BINDING TO IMMUNOGLOBULIN” (priority 2009, published 2011).

Entries after “also recorded” stand apart in the source; their conditions may differ.

The test system of assay [1] is Monoclonal antibody cocktail-induced arthritis mice. Briefly: Arthritis suppressing effects on arthritis-induced mice, Part 2. The assay is classed as in vivo. The conditions noted are these: 10 mg/kg intraperitoneal twice a day, 14 consecutive days from day 0. The protocol:
Monoclonal antibody cocktail-induced arthritis mice were used to examine arthritis suppressing effects of peptides which are indicated as R1, R2, and R5 in Example 2. Arthritis was caused by intravenous administration of 2 mg/mouse of an arthritis-inducing monoclonal antibody cocktail and three days later, intraperitoneal administration of 50 μg/mouse of LPS. The peptides were administered at a dose of 10 mg/kg twice a day for a period of 14 consecutive days from the day of administration of the arthritis-inducing monoclonal antibody cocktail (day 0), and arthritis suppressing effect was examined in terms of clinical score. Experiments were carried out in a similar way to those in the section (1) in Example 3.
The required amount was calculated for each peptide, based on the animal weight. Each peptide solution was prepared to make a concentration of 1 mg/ml in a 0.5% methyl cellulose solution, and the prepared peptide solution was cold stored.
Measurement of body weight of animals was made on days 0, 3, 6, 9, 12, and 14 during the study period, with day 0 being the day of administration of the arthritis-inducing monoclonal antibody cocktail. Observation of general condition was made on a daily basis.
Mice were weighed on the day prior to start of administration and randomly assigned to groups using a grouping software, so that the average body weight values of the groups were approximately equal. To twenty 7-week-old mice, the arthritis-inducing monoclonal antibody cocktail was intravenously administered at a dose of 2 mg/mouse on day 0, and LPS was intraperitoneally administered at a dose of 50 μg/mouse on day 3.
Each peptide solution was given via intraperitoneal administration twice a day, morning and afternoon, from day 0. As a control, a 0.5% solution of methyl cellulose was intraperitoneally administered twice a day from day 0. A needle (26G; Terumo) and a syringe (1.0-ml capacity; Terumo) were used for administration. […]
Results of examinations were expressed by mean value±standard error and analyzed using EXSAS (Version 7.1.6, Arm Systex Co., Ltd.). […]

Assay [2] deals with type III allergic (Arthus) reaction-induced rats. The assay can be described thus: Immune-complex disease suppression in type III allergic (Arthus) reaction-induced rats, Part 1. The assay is classed as in vivo. The conditions noted are these: intraperitoneal administration, 10 or 100 mg/kg. The protocol:
Using sixty-four 7-week-old male Slc:Wistar rats, examinations were made on peptides R1, R2, and R5, in two series of examinations, each using a different method of administration (intraperitoneal administration and tail vein administration). Acclimation was carried out by giving normal solid chow CRF-1 for a period of 9 days or longer. The back of the animals was shaved on the day prior to administration, and a mixed solution of OVA and Evans blue dye was administered into the tail vein on the day of administration. Each peptide solution was administered intraperitoneally or into the tail vein 30 minutes or 50 minutes after the administration of the mixed solution of OVA and Evans blue dye, respectively. For intracutaneous administration of an anti-OVA solution, […] was intracutaneously administered in the back of animals at a dose of 0.1 ml/site 30 minutes or 10 minutes after the administration of the tested substance in the case of intraperitoneal or intravenous administration, respectively, so as to generate a local Arthus reaction. After the reaction was allowed to be generated for 4 hours, the animals were euthanized, the blood was removed thoroughly, and then the dorsal skin was exfoliated. The Arthus reaction sites on the exfoliated skin were punched out, and the Evans blue dye was extracted from the punched skin overnight. The amount of dye leakage was quantified by measuring absorbance for the Evans blue dye with a spectrophotometer and using a calibration curve (see, H. Okamoto, Y. Iwahisa, and M. Terasawa, “Suppression of the Arthus reaction by Y-24180, a potent and specific antagonist of platelet-activating factor”, Agents Actions, 35:149-158 (1992), for experimental procedures used in Example 4).
A predetermined amount of each peptide (peptides R1, R2, and R5) was dissolved in physiological saline to make a 20 mg/ml solution. A 2 mg/ml solution was prepared by diluting the 20 mg/ml solution 10-fold with physiological saline. A 5 mg/ml solution was prepared by dissolving each peptide in a predetermined amount in physiological saline to make a prepared solution.
A mixed solution of OVA and Evans blue dye was administered into the tail vein at a dose of 2 ml/kg. Each peptide solution was administered intraperitoneally or into the tail vein 30 minutes or 50 minutes after the administration of the mixed solution of OVA and Evans blue dye, respectively. For intracutaneous administration of an anti-OVA solution, […] was intracutaneously administered in the back of animals at a dose of 0.1 mL/site 30 minutes or 10 minutes after the administration of the tested substance in the case of intraperitoneal or intravenous administration, respectively, so as to generate a local Arthus reaction. Intracutaneous administration was conducted at 2 sites for PBS and at 2 sites for the anti-OVA solution per animal. After the reaction was allowed to be generated for 4 hours, the animals were euthanized by decapitation under ether anesthesia, the blood was removed thoroughly, and then the dorsal skin was exfoliated. The Arthus reaction sites on the exfoliated skin were punched out and subjected to dye extraction.
Several cuttings were made in the skin strips that were punched out with a punch. […] The amount of dye leakage was calculated from a calibration curve of known amounts of the dye.
The mean value (mean)±standard deviation (SD) for each group was calculated with body-weight measurements and amounts of dye leakage. […]

On to “STGKFTCKVPGLYYF (Immunoglobulin binding peptide) [R5]”, for which, in assay [1], the “arthritis suppressing effect (clinical score)” value is reported as “Arthritis suppressing effects were observed; also recorded: arthritis was suppressed”. In addition, in assay [2], the “effect of immune-complex disease suppression (dye leakage)” value was “clear and satisfactory effects of immune-complex disease suppression; also recorded: suppressed”.
